For orientation: EC50 means the concentration at which the effect is half-maximal.

Where two headings read alike, the source gives them in different places.

In experiment [1] the test system is HCV genotype 1a (H77 strain) replicon in HUH-7 cells. Nature of the experiment: HCV replicon luciferase reporter assay, genotype 1a. The experiment is classed as cell-based. The following applies: Hepatitis C virus, Huh-7, 72 h, HCV genotype 1a replicon luciferase assay, 3 days incubation. The text has this:
(§1) Generation of HCV Replicon
(§2) An HCV replicon whole cell system was established as described by Lohmann V, Korner F, Koch J, Herian U, Theilmann L, Bartenschlager R., Science 285(5424):110-3 (1999) and modified to introduce a luciferase reporter, as first described by Krieger et al (Krieger N, Lohmann V, and Bartenschlager R, J. Virol. 75(10):4614-4624 (2001)). CDNA encoding a humanized form of the Renilla luciferase gene and a linker sequence fused directly to the 3′-end of the luciferase gene were introduced into the replicon construct using an Asc1 restriction site located in core, directly upstream of the neomycin marker gene. The adaptive mutation at position 1179 (serine to isoleucine) was also introduced (Blight K J, Kolykhalov, A A, Rice, C M, Science 290(5498):1972-1974). A stable cell line constitutively expressing this HCV replicon construct was generated by first linearizing plasmid DNAs with ScaI. RNA transcripts were synthesized in vitro using the T7 MegaScript transcription kit (Ambion, Austin, Tex.) according to manufacturer's directions. In vitro transcripts of the cDNA were transfected into the human hepatoma cell line, HUH-7. […] Resulting cell lines were characterized for positive and negative strand RNA production and protein production over time.
A stable HCV replicon luciferase reporter cell line representing the genotype 1a H77 strain (Yanagi M, Purcell R H, Emerson S U, et al. Transcripts from a single full-length cDNA clone of hepatitis C virus are infectious when directly transfected into the liver of a chimpanzee. Proc Natl Acad Sci USA 1997; 94(16):8738-8743) was generated as described previously for the genotype 1b(Con1) replicon luciferase cell line. The replicon construct was modified by introducing mutations were introduced into the genes encoding the NS3 helicase domain (proline replaced by leucine at position 1496) and NSSA (serine to isoleucine at position 2204) to improve replication in cell culture.
(§3) HCV Replicon Luciferase Reporter Assay
(§4) HCV replicon luciferase assays were developed to monitor the inhibitory effects of compounds described in the disclosure on HCV genotypes 1a and 1b viral replication. HUH-7 cells, constitutively expressing the HCV replicon, were grown in Dulbecco's Modified Eagle Media (DMEM) (Gibco-BRL) containing 10% Fetal calf serum (FCS) (Sigma) and 1 mg/mL G418 (Gibco-BRL). Compounds were serially diluted 3 folds in DMSO for a twenty-point titration and subsequently transferred to sterile 384-well tissue-culture treated plates (Corning cat #3571). The plates were then seeded with 50 μL of cells at a density of 3.0×10^3 cells/well in DMEM containing 4% FCS (final DMSO concentration at 0.5%). After 3 days incubation at 37° C., cells were analyzed for Renilla Luciferase activity using the EnduRen as substrate (Promega cat #E6485). The EnduRen substrate was diluted in DMEM and then added to the plates to a final concentration of 7.5 μM. The plates were incubated for 2 hrs at 37° C. and then read immediately for 30 seconds with Viewlux Imager (PerkinElmer) using a luminescence program. To assess cytotoxicity of compounds, CC50 values were generated by multiplexing the EnduRen-containing plates with Cell Titer-Blue (Promega, cat # G8082). Cell-Titer Blue (3 μL) was added to each well and incubated for 8 hrs at 37° C. The fluorescence signal from each well was read, with an excitation wavelength at 525/10 nm and an emission wavelength of 598/10 nm, using the Viewlux Imager.
(§5) The EC50 values for compounds were calculated by using a four-parameter logistic equation: y=A+((B−A)/(1+((C/x)^D))), where A and B denotes minimal and maximal % inhibition, respectively, C is the EC50, D is the hill slope and x represents compound concentration.
On the technique in general: In antiviral work, replicon cells carry a viral genome segment that copies itself.

The test system of experiment [2] is HCV genotype 1b (Con1) replicon in HUH-7 cells. The experiment in a line: HCV replicon luciferase reporter assay, genotype 1b. The following applies: Hepatitis C virus, Huh-7, 72 h, HCV genotype 1b replicon luciferase assay, 3 days incubation. It is filed as cell-based.
Excerpt: as §1
as §2, with “time. […]” for “time.”
as §3, §4, §5

Setting [3] is: range class, read-out: LE_1a (EC50, range).
Where [4] appears, read: range class, read-out: LE_1b (EC50, range).
Where [5] appears, read: GETYPE1A, range class, read-out: LE_1a (EC50, range).
[6] abbreviates: GETYPE1B, range class, read-out: LE_1b (EC50, range).

Consider `COc1cnc(O[C@@H]2C[C@H]3C(=O)N[C@]4(C(=O)NS(=O)(=O)C5CC5)C[C@H]4/C=C\CC[C@@H](C)C[C@@H](C)[C@H](NC(=O)OC(C)(C)C(F)(F)F)C(=O)N3C2)c2cccc(Cl)c12` [Compound 27, 1,1,1-trifluoro-2-methylpropan-2-yl((2R,6S,7R,9R,13aS,14aR,16aS,Z)-2-((5-chloro-4-methoxyisoquinolin-1-yl)oxy)-14a-((cyclopropylsulfonyl)carbamoyl)-7,9-dimethyl-5,16-dioxo-1,2,3,5,6,7,8,9,10,11,13a,14,14a,15,16,16a-hexadecahydrocyclopropa[e]pyrrolo[1,2-a][1,4]diazacyclopentadecin-6-yl)carbamate], for which the EC50 in experiment [1] (setting [3]) and in experiment [2] (setting [4]) was under 5.46 nM throughout.

Take `COc1cnc(O[C@@H]2C[C@H]3C(=O)N[C@]4(C(=O)NS(=O)(=O)C5CC5)C[C@H]4/C=C\CC[C@H](C)C[C@@H](C)[C@H](NC(=O)OC(C)(C)C(F)(F)F)C(=O)N3C2)c2cccc(Cl)c12` [Compound 28, 1,1,1-trifluoro-2-methylpropan-2-yl((2R,6S,7R,9S,13aS,14aR,16aS,Z)-2-((5-chloro-4-methoxyisoquinolin-1-yl)oxy)-14a-((cyclopropylsulfonyl)carbamoyl)-7,9-dimethyl-5,16-dioxo-1,2,3,5,6,7,8,9,10,11,13a,14,14a,15,16,16a-hexadecahydrocyclopropa[e]pyrrolo[1,2-a][1,4]diazacyclopentadecin-6-yl)carbamate]: the EC50 in experiment [1] (setting [3]) and in experiment [2] (setting [4]) was under 5.46 nM throughout.

Turning to `COc1cnc(O[C@@H]2C[C@H]3C(=O)N[C@]4(C(=O)NS(=O)(=O)C5(F)CC5)C[C@H]4/C=C\CC[C@@H](C)C[C@@H](C)[C@H](NC(=O)OC(C)(C)C(F)(F)F)C(=O)N3C2)c2cccc(Cl)c12` [Compound 30], the EC50 in experiment [1] (setting [5]) and in experiment [2] (setting [6]) was under 5.46 nM in each case.

Turning to `C[C@@H]1CC/C=C\[C@@H]2C[C@@]2(C(=O)NS(=O)(=O)C2CC2)NC(=O)[C@@H]2C[C@@H](Oc3ncc(OC4CC4)c4c(Cl)cccc34)CN2C(=O)[C@@H](NC(=O)OC(C)(C)C(F)(F)F)[C@H](C)C1` [Compound 32], the EC50 in experiment [1] (setting [5]) and in experiment [2] (setting [6]) was under 5.46 nM in each case.

For the molecule `CC(C)n1nc(O[C@@H]2C[C@H]3C(=O)N[C@]4(C(=O)NS(=O)(=O)C5CC5)C[C@H]4/C=C\CC[C@H](C)C[C@@H](C)[C@H](NC(=O)OC(C)(C)C)C(=O)N3C2)c2ccccc2c1=O` [Compound 1001, tert-butyl ((2R,6S,7R,9S,13aS,14aR,16aS,Z)-14a-((cyclopropylsulfonyl)carbamoyl)-2-((3-isopropyl-4-oxo-3,4-dihydrophthalazin-1-yl)oxy)-7,9-dimethyl-5,16-dioxo-1,2,3,5,6,7,8,9,10,11,13a,14,14a,15,16,16a-hexadecahydrocyclopropa[e]pyrrolo[1,2-a][1,4]diazacyclopentadecin-6-yl)carbamate], the EC50 is over 87.4 nM in experiment [1] (setting [3]), at least 1000 nM in experiment [1] (read-out: LE_1a (EC50)), over 87.4 nM in experiment [2] (setting [4]) and 449 nM in experiment [2] (read-out: LE_1b (EC50)).

`CC(C)n1nc(O[C@@H]2C[C@H]3C(=O)N[C@]4(C(=O)NS(=O)(=O)C5CC5)C[C@H]4/C=C\CC[C@@H](C)C[C@@H](C)[C@H](NC(=O)OC(C)(C)C)C(=O)N3C2)c2ccccc2c1=O` [Compound 1002, tert-butyl ((2R,6S,7R,9R,13aS,14aR,16aS,Z)-14a-((cyclopropylsulfonyl)carbamoyl)-2-((3-isopropyl-4-oxo-3,4-dihydrophthalazin-1-yl)oxy)-7,9-dimethyl-5,16-dioxo-1,2,3,5,6,7,8,9,10,11,13a,14,14a,15,16,16a-hexadecahydrocyclopropa[e]pyrrolo[1,2-a][1,4]diazacyclopentadecin-6-yl)carbamate]: the EC50 was over 87.4 nM in experiment [1] (setting [3]) and 4.82 to 103 nM in experiment [2] (setting [4]).

With `CC(C)n1nc(O[C@@H]2C[C@H]3C(=O)N[C@]4(C(=O)NS(=O)(=O)C5(C)CC5)C[C@H]4/C=C\CC[C@H](C)C[C@@H](C)[C@H](NC(=O)OC(C)(C)C)C(=O)N3C2)c2ccccc2c1=O` [Compound 1003, tert-butyl ((2R,6S,7R,9S,13aS,14aR,16aS,Z)-2-((3-isopropyl-4-oxo-3,4-dihydrophthalazin-1-yl)oxy)-7,9-dimethyl-14a-(((1-methylcyclopropyl)sulfonyl)carbamoyl)-5,16-dioxo-1,2,3,5,6,7,8,9,10,11,13a,14,14a,15,16,16a-hexadecahydrocyclopropa[e]pyrrolo[1,2-a][1,4]diazacyclopentadecin-6-yl)carbamate], the EC50 in experiment [1] (setting [3]) and in experiment [2] (setting [4]) was over 87.4 nM throughout.

On to `CC(C)n1nc(O[C@@H]2C[C@H]3C(=O)N[C@]4(C(=O)NS(=O)(=O)C5(C)CC5)C[C@H]4/C=C\CC[C@@H](C)C[C@@H](C)[C@H](NC(=O)OC(C)(C)C)C(=O)N3C2)c2ccccc2c1=O` [Compound 1004, tert-butyl ((2R,6S,7R,9R,13aS,14aR,16aS,Z)-2-((3-isopropyl-4-oxo-3,4-dihydrophthalazin-1-yl)oxy)-7,9-dimethyl-14a-(((1-methylcyclopropyl)sulfonyl)carbamoyl)-5,16-dioxo-1,2,3,5,6,7,8,9,10,11,13a,14,14a,15,16,16a-hexadecahydrocyclopropa[e]pyrrolo[1,2-a][1,4]diazacyclopentadecin-6-yl)carbamate], for which the EC50 is over 87.4 nM in experiment [1] (setting [3]), 110 nM in experiment [1] (read-out: LE_1a (EC50)), 4.82 to 103 nM in experiment [2] (setting [4]) and 48.8 nM in experiment [2] (read-out: LE_1b (EC50)).

For the molecule `COCCn1nc(O[C@@H]2C[C@H]3C(=O)N[C@]4(C(=O)NS(=O)(=O)C5(C)CC5)C[C@H]4/C=C\CC[C@H](C)C[C@@H](C)[C@H](NC(=O)OC(C)(C)C)C(=O)N3C2)c2ccccc2c1=O` [Compound 1005, tert-butyl ((2R,6S,7R,9S,13aS,14aR,16aS,Z)-2-((3-(2-methoxyethyl)-4-oxo-3,4-dihydrophthalazin-1-yl)oxy)-7,9-dimethyl-14a-(((1-methylcyclopropyl)sulfonyl)carbamoyl)-5,16-dioxo-1,2,3,5,6,7,8,9,10,11,13a,14,14a,15,16,16a-hexadecahydrocyclopropa[e]pyrrolo[1,2-a][1,4]diazacyclopentadecin-6-yl)carbamate], the EC50 in experiment [1] (setting [3]) and in experiment [2] (setting [4]) was over 87.4 nM in each case.

The values above are taken from patent US9499550B2 (BRISTOL-MYERS SQUIBB COMPANY, priority 2012, dated 2016).
